Reference: patent US11154067B2, “Membrane and method for preservation of produce” (Agricultural Research Council, priority 2015, dated 2021)

Assays:
Type in all cases: in vivo
Conditions in all cases: controlled atmosphere 28 days followed by 7 days at 20° C.
Penicillium expansum = assay: Postharvest dip trials of apples against Penicillium expansum
Neofabraea alba = assay: Postharvest dip trials of apples against Neofabraea alba
Botrytis cinerea = assay: Postharvest dip trials of apples against Botrytis cinerea

## CCO [Ethanol]
Penicillium expansum; 'Golden Delicious' apples
  antimicrobial efficacy indicated as percentage value: 18.07%
Penicillium expansum; 'Granny Smith' apples
  antimicrobial efficacy indicated as percentage value: 18.75%
Penicillium expansum; 'Pink Lady' apples
  antimicrobial efficacy indicated as percentage value: 0.16%
Neofabraea alba; 'Golden Delicious' apples
  antimicrobial efficacy indicated as percentage value: 10.41%
Neofabraea alba; 'Granny Smith' apples
  antimicrobial efficacy indicated as percentage value: 21.87%
Neofabraea alba; 'Pink Lady' apples
  antimicrobial efficacy indicated as percentage value: 19.25%
Botrytis cinerea; 'Golden Delicious' apples
  antimicrobial efficacy indicated as percentage value: 13.98%
Botrytis cinerea; 'Granny Smith' apples
  antimicrobial efficacy indicated as percentage value: 16.53%
Botrytis cinerea; 'Pink Lady' apples
  antimicrobial efficacy indicated as percentage value: 2.88%
